# Assay: Measurement of Log P values by HPLC on reversed phase columns (EEC directive 79/831 Annex V.A8)
# Type: physicochemical
# Description: Measurement of Log P values as provided herein was performed according to EEC directive 79/831 Annex V.A8 by HPLC (High Performance Liquid Chromatography) on reversed phase columns with the following methods: • ^[a] Log P value is determined by measurement of LC-UV, in an acidic range, with 0.1% formic acid in water and acetonitrile as eluent (linear gradient from 10% acetonitrile to 95% acetonitrile). • ^[b] Log P value is determined by measurement of LC-UV, in a neutral range, with 0.001 molar ammonium acetate solution in water and acetonitrile as eluent (linear gradient from 10% acetonitrile to 95% acetonitrile). • ^[c] Log P value is determined by measurement of LC-UV, in an acidic range, with 0.1% phosphoric acid and acetonitrile as eluent (linear gradient from 10% acetonitrile to 95% acetonitrile).
# If more than one Log P value is available within the same method, all the values are given and separated by “+”.
# Calibration was done with straight-chain alkan2-ones (with 3 to 16 carbon atoms) with known Log P values (measurement of Log P values using retention times with linear interpolation between successive alkanones). Lambda-max-values were determined using UV-spectra from 200 nm to 400 nm and the peak values of the chromatographic signals
row,SMILES,LogP
1,Cc1ncc(Oc2cccc(C3CC3)c2F)c(C(=O)NCCc2cnc(C(F)(F)F)nc2)n1 [Compound I-032],3.09^[a]
2,Cc1cccc(Oc2cnc(C)nc2C(=O)NCC(F)(F)c2ccc(C)cc2C)c1 [Compound I-033],4.06^[a]
3,CON(CCc1ccc(Cl)cc1Cl)C(=O)c1nc(C)ncc1Oc1cccc(C2CC2)c1F [Compound I-034],4.91^[a]
4,C#Cc1cccc(Oc2nnc(C3CC3)nc2C(=O)N/C=C(\F)c2ccc(C)cc2C)c1 [Compound I-038],4.59^[a]
5,Cc1ccc(C(F)(F)CNC(=O)c2nc(C)ncc2Oc2cccc(Cl)c2F)c(C)c1 [Compound I-039],4.22^[a]
6,Cc1ccc(/C(F)=C\NC(=O)c2nc(C3CC3)nnc2Oc2cccc(C3CC3)c2F)c(C)c1 [Compound I-040],5.49^[a]
7,Cc1ncc(Oc2cccc(C3CC3)c2F)c(C(=O)NCCc2cccc3[nH]ccc23)n1 [Compound I-042],3.23^[a]
8,Cc1ncc(Oc2cccc(C3CC3)c2F)c(C(=O)NCC(F)c2ccc(C)c(C)c2)n1 (centres unmarked) [Compound I-043],4.22^[a]
9,Cc1ncc(Oc2cccc(C3CC3)c2F)c(C(=O)NC2CCCc3ccc(Br)cc32)n1 (centres unmarked) [Compound I-045],4.55^[a]
10,Cc1ncc(Oc2cccc(C3CC3)c2F)c(C(=O)NC2CCOc3ccccc32)n1 (centres unmarked) [Compound I-046],3.54^[a]
11,Cc1ccc(C(F)=CNC(=O)c2nc(C3CC3)nnc2Oc2cccc(Br)c2F)c(C)c1 [Compound I-048],5.04^[a]
12,Cc1ccc(/C(F)=C\NC(=O)c2nc(C3CC3)nnc2Oc2cccc(C)c2F)c(C)c1 [Compound I-051],5.16^[a]
13,Cc1cnn(CCNC(=O)c2nc(C)ncc2Oc2cccc(C3CC3)c2F)c1 [Compound I-052],2.59^[a]
14,Cc1ccc2c(c1)CCCC2NC(=O)c1nc(C)ncc1Oc1cccc(C2CC2)c1F (centres unmarked) [Compound I-053],4.49^[a]
15,Cc1ccc2c(c1)C(NC(=O)c1nc(C)ncc1Oc1cccc(C3CC3)c1F)CC(C)(C)O2 (centres unmarked) [Compound I-055],4.42^[a]
16,Cc1ncc(Oc2cccc(C3CC3)c2F)c(C(=O)NC2CCS(=O)(=O)c3ccccc32)n1 (centres unmarked) [Compound I-057],2.78^[a]
17,COc1ccc2c(c1)C(NC(=O)c1nc(C)ncc1Oc1cccc(C3CC3)c1F)C(OC)CC2 (centres unmarked) [Compound I-060],3.72^[a]
18,COc1cccc(Oc2nnc(C3CC3)nc2C(=O)N/C=C(\F)c2ccc(C)cc2C)c1 [Compound I-061],4.44^[a]
19,Cc1ncc(Oc2cccc(C3CC3)c2F)c(C(=O)NCCc2cccs2)n1 [Compound I-064],3.43^[a]
20,CCC(=O)N(CCc1ccccc1)C(=O)c1nc(C)ncc1Oc1cccc(C2CC2)c1F [Compound I-066],4.52^[a]
21,COc1ccc(CCN(C(C)=O)C(=O)c2nc(C)ncc2Oc2cccc(C3CC3)c2F)cc1 [Compound I-067],4.01^[a]
22,Cc1ncc(Oc2cccc(C3CC3)c2F)c(C(=O)NC2CCCc3cc(Br)ccc32)n1 (centres unmarked) [Compound I-069],4.71^[a]

row,SMILES,LogP
1,Cc1ncc(Oc2cccc(C3CC3)c2F)c(C(=O)NCC(F)(F)c2cc(Cl)sc2Cl)n1 [Compound I-070],4.69^[a]
2,Cc1cc(C)n(CCNC(=O)c2nc(C)ncc2Oc2cccc(C3CC3)c2F)n1 [Compound I-075],2.60^[a]
3,Cc1ncc(Oc2cccc(C3CC3)c2F)c(C(=O)NC(C)c2ccc(Cl)s2)n1 (centres unmarked) [Compound I-076],4.09^[a]
4,Cc1ncc(Oc2cccc(C3CC3)c2F)c(C(=O)NCCc2ccc3c(c2)OCCO3)n1 [Compound I-077],3.30^[a]
5,Cc1ncc(Oc2cccc(C3CC3)c2F)c(C(=O)NC2CCCc3sc(C4CC4)nc32)n1 (centres unmarked) [Compound I-078],3.81^[a]
6,Cc1ncc(Oc2cccc(C3CC3)c2F)c(C(=O)NC2CC(C)(C)Oc3cc(Cl)c(F)cc32)n1 (centres unmarked) [Compound I-080],4.87^[a]
7,Cc1ccc(C(F)(F)CNC(=O)c2nc(C)ncc2Oc2cccc(C)c2F)c(C)c1 [Compound I-083],4.07^[a]
8,COc1cccc(Oc2cnc(C)nc2C(=O)NCC(F)(F)c2ccc(C)cc2C)c1F [Compound I-084],3.71^[a]
9,Cc1ccc(C(F)(F)CNC(=O)c2nc(C)ncc2Oc2cccc(Br)c2)c(C)c1 [Compound I-085],4.28^[a]
10,Cc1ncc(Oc2cccc(C3CC3)c2F)c(C(=O)NCCn2cc(Cl)cn2)n1 [Compound I-086],2.88^[a]
11,Cc1ncc(Oc2cccc(C3CC3)c2F)c(C(=O)NCCc2ccc3c(c2)CCO3)n1 [Compound I-087],3.43^[a]
12,Cc1ncc(Oc2cccc(C3CC3)c2F)c(C(=O)N(Cc2ccccc2)OCC(C)C)n1 [Compound I-088],4.72^[a]
13,Cc1ccc(C(F)(F)CNC(=O)c2nc(C)ncc2Oc2cccc([N+](=O)[O-])c2)c(C)c1 [Compound I-090],3.75^[a]
14,Nc1ncc(Oc2cccc(C(F)(F)F)c2)c(C(=O)NCCc2ccc(Br)cc2)n1 [Compound I-095],4.05^[a]
15,CC(NC(=O)c1nc(F)ncc1Oc1cccc(C(F)(F)F)c1)c1cccc(C(F)(F)F)c1 (centres unmarked) [Compound I-096],2.88^[a]
16,Cc1ncc(Oc2cccc(C3CC3)c2F)c(C(=O)NOCc2ccc(C#N)cc2)n1 [Compound I-097],2.87^[a]
17,Cc1ncc(Oc2cccc(C3CC3)c2F)c(C(=O)NCCc2ccc(OC(C)C)nc2)n1 [Compound I-099],3.44^[a]
18,Cc1ncc(Oc2cccc(C3CC3)c2F)c(C(=O)NOCc2ccc(OC(F)(F)F)cc2)n1 [Compound I-100],3.89^[a]
19,C#Cc1cccc(Oc2cnc(C)nc2C(=O)NCC(F)(F)c2ccc(C)cc2C)c1 [Compound I-102],4.01^[a]
20,Cc1ccc(C(F)(F)CNC(=O)c2nc(C)ncc2Oc2cccc(C3CC3)c2F)c(C)c1 [Compound I-103],4.44^[a]
21,Cc1ccc(/C(F)=C/NC(=O)c2nc(C3CC3)nnc2Oc2cccc(Cl)c2F)c(C)c1 [Compound I-105],5.36^[a]

# More lines, now with the values ahead:
row,LogP,SMILES
1,4.19^[a],Cc1nnc(Oc2cccc(C3CC3)c2)c(C(=O)NCC(F)(F)c2ccc(C)c(C)c2)n1 [Compound I-031]
2,3.88^[a],Cc1ccc(C(F)(F)CNC(=O)c2nc(C)ncc2Oc2cccc(N(C)C)c2)c(C)c1 [Compound I-035]
3,4.81^[a],Cc1ccc(C(F)(F)CNC(=O)c2nc(C3CC3)nnc2Oc2cccc(C3CC3)c2F)c(C)c1 [Compound I-037]
4,3.52^[a],Cc1ncc(Oc2cccc(C3CC3)c2F)c(C(=O)NCCc2ccc(C)o2)n1 [Compound I-041]
5,3.98^[a],Cc1ccc(C(F)(F)CNC(=O)c2nc(C)ncc2Oc2cccc(OC(F)F)c2)c(C)c1 [Compound I-044]
6,4.13^[a],CCOc1cccc(Oc2cnc(C)nc2C(=O)NCC(F)(F)c2ccc(C)cc2C)c1 [Compound I-047]
7,4.39^[a],Cc1ccc(C(F)(F)CNC(=O)c2nc(C)ncc2Oc2ccc(C(F)(F)F)cc2)c(C)c1 [Compound I-049]
8,4.47^[a],Cc1ccc(C(F)(F)CNC(=O)c2nc(C3CC3)nnc2Oc2cccc(C)c2F)c(C)c1 [Compound I-050]
9,3.93^[a],Cc1ncc(Oc2cccc(C3CC3)c2F)c(C(=O)NCCOc2ccc(Cl)cc2)n1 [Compound I-054]
10,3.32^[a],Cc1ccc(C(F)(F)CNC(=O)c2nc(C)ncc2Oc2cccc(C3COC3)c2)c(C)c1 [Compound I-056]
11,3.71^[a],Cc1ccc(C(F)(F)CNC(=O)c2nc(C)ncc2Oc2ccccc2)c(C)c1 [Compound I-058]
12,3.66^[a],COCCOc1cccc(Oc2cnc(C)nc2C(=O)NCC(F)(F)c2ccc(C)cc2C)c1 [Compound I-059]
13,4.59^[a],Cc1ccc(C(F)(F)CNC(=O)c2nc(C3CC3)nnc2Oc2cccc(Br)c2)c(C)c1 [Compound I-062]
14,3.73^[a],Cc1ccc(C(F)(F)CNC(=O)c2nc(C)ncc2Oc2cncc(C(F)(F)F)c2)c(C)c1 [Compound I-068]
15,4.42^[a],CCc1cccc(Oc2cnc(C)nc2C(=O)NCC(F)(F)c2ccc(C)cc2C)c1 [Compound I-071]
16,3.67^[a],COCc1cccc(Oc2cnc(C)nc2C(=O)NCC(F)(F)c2ccc(C)cc2C)c1 [Compound I-072]
17,4.26^[a],C#Cc1cccc(Oc2nnc(C3CC3)nc2C(=O)NCC(F)(F)c2ccc(C)cc2C)c1 [Compound I-073]
18,3.53^[a],Cc1ccc(C(F)(F)CNC(=O)c2nc(C)ncc2Oc2cccc(C#N)c2)c(C)c1 [Compound I-079]
19,4.52^[a],Cc1ncc(Oc2cccc(C3CC3)c2F)c(C(=O)NCCOc2ccc(C(F)(F)F)cc2Cl)n1 [Compound I-081]
20,4.19^[a],COc1cccc(Oc2nnc(C3CC3)nc2C(=O)NCC(F)(F)c2ccc(C)cc2C)c1 [Compound I-082]
21,3.93^[a],COc1cc(C(F)CNC(=O)c2nc(C)ncc2Oc2cccc(C3CC3)c2F)ccc1Cl (centres unmarked) [Compound I-089]
22,4.49^[a],Cc1ccc(C(F)(F)CNC(=O)c2nc(C)ncc2Oc2cccc3c2CCC3)c(C)c1 [Compound I-092]
23,4.54^[a],Cc1ccc(C(F)(F)CNC(=O)c2nc(C)ncc2Oc2ccc(C)c(Cl)c2)c(C)c1 [Compound I-093]
24,4.50^[a],Cc1ccc(C(F)(F)CNC(=O)c2nc(C)ncc2Oc2cccc(OC(F)(F)F)c2)c(C)c1 [Compound I-094]
25,4.56^[a],Cc1ccc(C(F)(F)CNC(=O)c2nc(C)ncc2Oc2ccc3c(c2)CCC3)c(C)c1 [Compound I-104]
